This assay addresses T1, Phosphorylated rglkA (Staphylococcus aureus, UniProt H6UH58).
T1 construct: gene glcK; recombinant from clone glkA1, nickel-column purified (His tag implied); phosphorylated in vitro by S. aureus rBYK (tyrosine; site not determined)
In words: coupled glucose-6-phosphate dehydrogenase assay, […] nm; Hanes-Woolf plot. The class given is biochemical. Conditions: ATP, 0.5 mM MgCl2, NADP, 60 mM Tris-HCl pH 7.5, 37 °C; enzyme phosphorylated by BYK.

The results in this text go back to PMC5274716, “Phosphorylation of Staphylococcus aureus Protein-Tyrosine Kinase Affects the Function of Glucokinase and Biofilm Formation” (Iranian Biomedical Journal, 2017).

One may read the Km as the substrate concentration at which the rate is half of its maximum.

T1 sequence (H6UH58 entry or part of it): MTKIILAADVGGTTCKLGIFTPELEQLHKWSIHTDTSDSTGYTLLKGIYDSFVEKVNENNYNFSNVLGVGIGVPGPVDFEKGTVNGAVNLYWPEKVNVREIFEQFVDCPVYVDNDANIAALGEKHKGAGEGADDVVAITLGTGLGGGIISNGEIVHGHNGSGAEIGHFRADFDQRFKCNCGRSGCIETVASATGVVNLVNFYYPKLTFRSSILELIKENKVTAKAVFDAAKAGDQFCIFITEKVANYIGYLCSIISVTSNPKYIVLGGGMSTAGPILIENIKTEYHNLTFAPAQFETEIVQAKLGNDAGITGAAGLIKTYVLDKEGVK

In the case of `OC[C@H]1OC(O)[C@H](O)[C@@H](O)[C@@H]1O` (stereo partly shown) [glucose], the Km is 5.18 ± 0.5 mM.
